From PubChem BioAssay AID489033 (Sanford-Burnham Center for Chemical Genomics, 2010) come the findings set out here.

pIC50: −log10 of the molar value. Calls of active or inactive are those of the source. How the calls were made is not given here. *1 amine or outer side, *2 acyl side, *3 side chain or, on linkers, in order; H or OH if unused. Where a SMILES comes first, the peptide text is derived from it. [ ]: non-standard residue; d: D form. X2 = CCC[C@@H](N[*:1])[C@H](C)C(=O)O[C@H](C(=O)[*:2])[C@@H](C)CC; X1 = CC(N[*:1])C(=O)C(C)(C)C(=O)[*:2]; NMeY = CN[C@@H](Cc1ccc(O)cc1)C(=O)O; NMeL = CN[C@@H](CC(C)C)C(=O)O; NMeV = CN[C@H](C(=O)O)C(C)C; NMeA = CN[C@@H](C)C(=O)O Some results are limits rather than exact numbers.

This assay relates to 697B B-cell line, NF-kB luciferase reporter luminescence. In words: NF-kB reporter inhibition in B cells, dose response, selectivity assay for T-cell antigen receptor NF-kB inhibitors, 697B cells, luminescence (AID 489033).
With `c1ccc2c(c1)CCN(c1ncnc3c1[nH]c1ccccc13)C2`, the pIC50 – broadly, the negative decadic logarithm of the IC50, by convention in mol/L – was 4.77.

In the case of `O=C(Nc1ccc(S(=O)(=O)N2CCOCC2)cc1)c1ccc(CN2CCc3ccccc3C2)cc1`, the IC50 (as a rule, the concentration that gives 50% inhibition) was > 80 µM (inactive).

Take `CCN(CC)S(=O)(=O)c1ccc(NC(=O)c2ccc(CN3CCOCC3)cc2)cc1`: the pIC50 was 5.00.

`O=C(NCCOc1ccccc1)c1cc([N+](=O)[O-])ccc1N1CCOCC1`: the IC50 is > 80 µM (inactive).

For `CCOC(=O)c1[nH]c(C)c(C(=O)Nc2cc(OC)ccc2OC)c1C`, the IC50 is > 80 µM (inactive).

Consider `CC1=C(C(=O)OCc2ccc3c(c2)OCO3)C(c2ccc(Cl)cc2)NC(=O)N1` (configuration not stated), for which the pIC50 is 6.34.

Turning to `Cc1cnc(NC(=O)c2ccc3c(c2)OCCO3)s1`, the pIC50 was 5.97.

Take `CC(C)Oc1ccccc1C1CC(=O)Nc2cc3c(cc21)OCCO3` (configuration not stated): the IC50 is 59.5 µM (inactive).

Regarding `Cc1ccc(C(=O)O/N=C(\N)c2ccccn2)c(Cl)c1`, the pIC50 is 6.07.

Consider `COc1cc(NS(=O)(=O)c2ccc(OC)c(C)c2C)c(OC)cc1Cl`, for which the IC50 was > 80 µM (inactive).

As for `Cc1c(C(=O)OCC(C)C)[nH]c2c1C(=O)CC(c1cccs1)C2` (configuration not stated), the IC50 was > 80 µM (inactive).

As for `Cc1cc(NC(=O)CSc2nc3ccccc3c(=O)n2C2CCCC2)no1`, the IC50 is > 80 µM (inactive).

For the molecule `CCN1C=CC(=C2C(=O)c3ccccc3C2=O)C=C1`, the pIC50 was 5.95.

As for `CC[C@]1(O)CC2CN(CCc3c([nH]c4ccccc34)[C@@](C(=O)OC)(c3cc4c(cc3OC)N(C=O)[C@H]3[C@@](O)(C(=O)OC)[C@H](OC(C)=O)[C@]5(CC)C=CCN6CC[C@]43[C@@H]65)C2)C1` (some centres not stated), the IC50 was > 80 µM (inactive).

As to `CCN(CC)c1ccc(-c2nn3c(-c4n[nH]c5c4CCC5)nnc3s2)cc1`, the IC50 is > 80 µM (inactive).

Take `Cc1ccc2c(c1)Oc1ccc(NC(=O)CCl)cc1C(=O)N2`: the negative-log IC50 (pIC50) was 6.14.

`CCCCOc1ccc(Br)cc1/C(C)=N/NC1=NCCN1`: the IC50 is 28.6 µM (inactive).

In the case of `CC(=O)NC(c1ccc2ccccc2c1)c1ccc2cccnc2c1O` (configuration not stated), the IC50 is > 80 µM (inactive).

As to `CCn1c2ccccc2c2cc(Nc3cc(C)nc4ncnn34)ccc21`, the IC50 is 47 µM (inactive).

With `Clc1cccc(Cl)c1OCCOCCNCc1ccccc1`, the IC50 is > 80 µM (inactive).

On to `COC(=O)Nc1ccc(S(=O)(=O)N2c3ccccc3CCC2C)cc1` (configuration not stated), for which the IC50 was > 80 µM (inactive).

`Cc1ccc(O)c(N=Nc2nccs2)c1`: the negative-log IC50 (pIC50) is 5.07.

For `COc1cccc(C2CC(=O)Nc3cc4c(cc32)CCC4)c1` (configuration not stated), the IC50 was > 80 µM (inactive).

For `CC(Nc1ncnc2ccccc12)c1ccccc1` (configuration not stated), the IC50 is > 80 µM (inactive).

For `Cc1ccc(Oc2ccc(OCC(=O)Nc3ccncc3)cc2)cc1`, the IC50 was 58.6 µM (inactive).

`COC(=O)C1=C(CN2CCCc3ccccc32)NC(=O)NC1c1ccc(F)cc1` (configuration not stated): the negative logarithm of the IC50 (pIC50) was 5.46.

As for `Cc1nc(SCC(=O)Nc2nc3ccccc3s2)c(C#N)c(C)c1C`, the negative-log IC50 (pIC50) is greater than 6.80.

`Cc1cccc(N2CCN(C(=O)c3c(-c4ccccc4Cl)noc3C)CC2)c1C`: the IC50 was > 80 µM (inactive).

Take `CCCOC(=O)c1[nH]c2c(c1C)C(=O)CC(c1cccs1)C2` (configuration not stated): the IC50 was > 80 µM (inactive).

Consider `CCCOc1ccc(/C=N/Nc2cc(N3CCOCC3)ncn2)c(O)c1`, for which the negative-log IC50 (pIC50) was 4.96.

Regarding `COc1ccc(-[n+]2c(-c3ccccc3)cc(-c3ccc(C)cc3)cc2-c2ccccc2)cc1`, the negative logarithm of the IC50 (pIC50) is 5.08.

Turning to `CCOC(=O)c1[nH]c(C)c(C(=O)Nc2ccc(C)cc2C)c1C`, the IC50 was 42.3 µM (inactive).

`COc1ccc2c(c1)C(=O)N1[C@H]3c4cc(Br)ccc4OC[C@@H]3[C@H](c3ccccc3)[C@]1(C)C(=O)N2`: the IC50 was > 80 µM (inactive).

With `COc1ccccc1CNS(=O)(=O)c1ccc(-c2cc(C)no2)cc1`, the IC50 is > 80 µM (inactive).

Take `COC(=O)c1nn(-c2ccc3c(c2)CCN3C(C)=O)cc1O`: the pIC50 is 5.29.

Take `COc1cc(CC(=O)OCC(=O)c2ccc3c(c2)OCCO3)cc(OC)c1OC`: the IC50 is > 80 µM (inactive).

For the molecule `Oc1ccc2ccccc2c1N=Nc1ccccn1`, the negative-log IC50 (pIC50) is 5.49.

Consider `Cc1nc(Nc2nc3c(c(=O)[nH]2)CCC3)nc2ccccc12`, for which the negative logarithm of the IC50 (pIC50) is 5.22.

Take `CCC[C@H]1NC(=O)[C@H](C)N(C)C(=O)C(C)(C)C(=O)C(C)NC(=O)[C@H](Cc2ccc(OC)cc2)N(C)C(=O)[C@H](C(C)C)N(C)C(=O)CNC(=O)[C@H](CC(C)C)N(C)C(=O)CNC(=O)[C@H]([C@@H](C)CC)OC(=O)[C@H]1C` (some centres not stated) (cyclo(G[NMeL]G[NMeV][NMeY](Me)[X1][NMeA][X2])): the IC50 is 29.3 µM (inactive).

Regarding `Cc1ccc(C(=O)c2cc([N+](=O)[O-])ccc2N2CCCCC2)c(C)c1`, the IC50 was > 80 µM (inactive).

As for `Cn1nc(CC(=O)Nc2ccc(N3CCN(C(=O)OC(C)(C)C)CC3)cc2)c2ccccc2c1=O`, the IC50 is > 80 µM (inactive).

Consider `CCOC(=O)N1CCN(C(=O)C2CCCN(Cc3nc(-c4ccc(Cl)cc4)oc3C)C2)CC1` (configuration not stated), for which the IC50 was 33.9 µM (inactive).

In the case of `O=C(Sc1cccc2cccnc12)c1ccccc1Br`, the pIC50 was 5.44.

For `Cc1ccc(/C=C/c2ccc(N(C)C)cc2)[n+](C)c1`, the IC50 was > 80 µM (inactive).

Turning to `COCCCNC(=O)C(=O)Nc1ccc2c(c1)N(S(=O)(=O)c1cccs1)CCC2`, the IC50 was > 80 µM (inactive).

On to `Cc1cc(C(C)(C)C)cc(C)c1C[n+]1ccc2ccccc2c1`, for which the IC50 was > 80 µM (inactive).

As to `O=C1C=CCC(/C=C/c2ccccc2)O1` (configuration not stated), the pIC50 is 5.66.

On to `CCN(CC)c1ccc(-c2nn3c(-c4ccccc4OC)nnc3s2)cc1`, for which the IC50 is > 80 µM (inactive).

Consider `COc1ccc(CCNc2nnc(Sc3nnnn3-c3ccccc3)s2)cc1OC`, for which the negative logarithm of the IC50 (pIC50) is 4.72.

For `CCOc1ccccc1C1CC(=O)Nc2cc3c(cc21)OCO3` (configuration not stated), the IC50 was > 80 µM (inactive).

As for `CCOC(=O)C1CCN(S(=O)(=O)c2c(Cl)ccc3nonc23)CC1`, the pIC50 was 5.97.

Regarding `CN(C)c1ccc2c(c1)OC(N)=C(C#N)C2c1cccc(F)c1` (configuration not stated), the IC50 is > 80 µM (inactive).

`CCc1cc(C(=O)NC2CCCc3c2cnn3-c2cccc(C)c2C)n(C)n1` (configuration not stated): the IC50 was > 80 µM (inactive).

`CCN1C/C(=C/c2ccc(OC)c(O)c2)C(=O)/C(=C/c2ccc(OC)c(O)c2)C1`: the IC50 was 25.2 µM (inactive).

As to `Cc1cc(-c2ccc(S(=O)(=O)N(C)c3ccc(C)c(C)c3)s2)on1`, the IC50 is > 80 µM (inactive).

For the molecule `CC(=O)N1c2ccc(S(=O)(=O)N3CCC(C(=O)Nc4cccc(C)n4)CC3)cc2CC1C` (configuration not stated), the pIC50 is 6.10.

Take `CCn1c2ccccc2c2cc(NC(=O)c3cc(OC)c(OC)c(OC)c3)ccc21`: the pIC50 is 4.73.

Consider `O=C(Nc1ccncc1)c1ccc(Cl)c(S(=O)(=O)N2CCc3ccccc32)c1`, for which the IC50 is 61.9 µM (inactive).

As for `CCCOCCOC(=O)c1[nH]c2c(c1C)C(=O)CC(c1cc(OC)ccc1OC)C2` (configuration not stated), the IC50 is > 80 µM (inactive).

On to `COC(=O)c1[nH]c2c(c1C)C(=O)CC(c1cccs1)C2` (configuration not stated), for which the IC50 was > 80 µM (inactive).

With `CCOc1ccccc1C(=O)N1CCN(c2cccc(Cl)c2)CC1`, the IC50 was > 80 µM (inactive).

In the case of `COc1ccc2nc(C)cc(N/N=C/c3ccc(F)cc3)c2c1`, the negative-log IC50 (pIC50) is 5.68.
